Literature values in patent US20260216276A1, “COMPOSITIONS AND METHODS FOR MODULATING COMPLEMENT ACTIVITY” (UCB HOLDINGS, INC., priority 2019, published 2026).
Starred links: 1 amine or outer side, 2 acyl side, 3 side chain; linkers in the order of their positions; H or OH if unused. Positions of bridges follow the written chain, without caps; N, C: chain ends. Non-standard residues stand in square brackets, D forms with d. Residues, ends and D or L forms follow the SMILES beside them. Groups on a side chain read outwards from the residue. *: point of attachment. PEG24 = NCCOCCOCCOCCOCCOCCOCCOCCOCCOCCOCCOCCOCCOCCOCCOCCOCCOCCOCCOCCOCCOCCOCCOCCOCCC(=O)O; X1 = N=C(N)NCCC[C@H](N[*:1])C(=O)C[C@@H](Cc1ccccc1)C(=O)[*:2]; Trp(7-aza) = N[C@@H](Cc1c[nH]c2ncccc12)C(=O)O; γGlu = O=C(O)[C@H](CCC(=O)[*:2])N[*:1]; Palmitoyl = CCCCCCCCCCCCCCCC(=O)*; NMeD = CN[C@@H](CC(=O)O)C(=O)O; Chg = N[C@H](C(=O)O)C1CCCCC1; Tle = CC(C)(C)[C@H](N)C(=O)O

Columns and labels:
[1] = tested on: complement component 5 (C5); conditions: including p.R885>H/C; cited from earlier work
[2] = tested on: surface-bound C5b-9 or soluble membrane attack complex (sC5b-9); conditions: unlike eculizumab; cited from earlier work

SMILES: CCCCCCCCCCCCCCCC(=O)N[C@@H](CCC(=O)NCCOCCOCCOCCOCCOCCOCCOCCOCCOCCOCCOCCOCCOCCOCCOCCOCCOCCOCCOCCOCCOCCOCCOCCOCCC(=O)NCCCC[C@H](NC(=O)[C@@H](NC(=O)[C@@H]1CCCN1C(=O)[C@H](Cc1ccc(O)cc1)NC(=O)[C@H](CCC(=O)[O-])NC(=O)[C@H](Cc1c[nH]c2ncccc12)NC(=O)[C@H](Cc1ccc(O)cc1)NC(=O)[C@@H](NC(=O)[C@H](CC(=O)[O-])N(C)C(=O)[C@@H]1CC(=O)NCCCC[C@H](NC(C)=O)C(=O)N[C@@H](C(C)C)C(=O)N[C@@H](CCC(=O)O)C(=O)N[C@@H](CCCNC(=N)N)C(=O)C[C@@H](Cc2ccccc2)C(=O)N1)C(C)(C)C)C1CCCCC1)C(=O)[O-])C(=O)[O-].[Na+].[Na+].[Na+].[Na+] [zilucoplan] (Ac-KVE[X1]D[NMeD][Tle]Y[Trp(7-aza)]EYP[Chg]K([PEG24-γGlu-Palmitoyl])-OH; lactam 1-5)
- binding and inhibitory activities in the presence of clinically relevant human C5 polymorphisms [1]: not affected
- binding to surface-bound C5b-9 or sC5b-9 [2]: does not bind
